Results taken from patent publication US6235731A, “Fused imidazopyridine derivatives as antihyperlipidemic agents” (Takeda Chemical Industries, Ltd., priority 1996, dated 2001).
Where a name gives a salt, the structure may show the parent alone. Read-outs that look alike come from different tables or passages of the source.

Columns and labels:
HepG2 cells = assay: Increase in LDL-binding to HepG2 cells; format: cell-based; details: 10 μM test compound, 20 hours, specific human [125I]LDL binding, normalized by protein, read-out: LDL binding (% of control)
Protocol: Increase in LDL-binding to HepG2 cells LDL-binding was measured according to the method of J. L. Goldstein. HepG2 cells were purchased from ATCC (American type culture collection) and seeded in 6-well plate with collagen coating (Sumitomo Bakelite), and cultured in Eagle's minimum essential medium (MEM) containing 10%-fetal bovine serum at 37° C. for 4 days. […] After washing with phosphate buffered saline cells were incubated with MEM containing 25 mM-HEPES and 1%-bovine serum albumin (fatty acid free) in the presence of human [^125 I]LDL (4 μg/ml) at 6° C. for 2 hours. After washing cells bound [^125 I]LDL was dissociated with dextran sulfate and the radioactivity was measured (total binding). [^125 I]LDL binding to cells was also measured in the presence of LDL (300 μg/ml) as a non-specific binding (NSB). Specific [^125 I]LDL-binding was calculated by subtracting NSB from total binding and was normalized by protein content measured by the method of lowry. Data was expressed as percentage of the control.

Golden Syrian hamsters = assay: Cholesterol lowering activity in Golden hamster; format: in vivo, Golden Syrian hamster; details: Mesocricetus auratus, po, 96 h, 20 mg/kg/d orally, once daily for 4 days
Protocol: Cholesterol lowering activity in Golden hamster Male Golden Syrian hamsters (110-130 g) were maintained freely on water and a laboratory diet (CE-2, Clea Japan Inc., Tokyo). […] Blood was taken from orbital sinus and plasma total cholesterol and triglyceride were measured an automatic analyzer (Hitachi 7070, Hitachi Ltd., Tokyo) using commercial kits (Wako Pure Chemical Industries, Osaka), and plasma HDL-cholesterol using a commercial kit (Kyowa Medex Co., Ltd., Tokyo) before and after the treatment of compound. Non-HDL cholesterol was calculated by subtracting HDL-cholesterol from total cholesterol. |Non-HDL-C (non-HDL-cholesterol): [total cholesterol]-[HDL-cholesterol] |TG: triglyceride

Wistar fatty rats = assay: Lipid-lowering effect in Wistar fatty rats; format: in vivo, Wistar fatty rat; details: 30 mg/kg/day by stomach tube, 2 weeks, plasma, Mean ± SD (n = 6)
Protocol: Lipid-lowering effect in Wistar fatty rats
Male Waistar fatty rats were maintained on free access to normal diet (CE-2, Clea Japan) and water. Body weights were measured at 10 weeks of age and the blood was taken from the orbital sinus and determined for plasma total cholesterol (TC), triglyceride (TG), glucose, and HDL-cholesterol (HDL-C) with Wako Pure Chemical and Kyowa Medex kits using an automatic analyzer (Hitachi 7070). Non-HDL-cholesterol (non-HDL-C) was calculated by subtracting HDL-cholesterol from total cholesterol.
The rats were divided into 2 groups (n=6) and 30 mg/kg/day of the test compound (Example 22) in 0.5% methylcellulose solution was administered by a stomach tube to one of the groups once daily for 2 weeks (test group). 0.5% Methylcellulose solution only was similarly administered to the other group (control group). On day 14, body weights were measured again and the blood was taken from the orbital sinus and determined for plasma total cholesterol, HDL-cholesterol, triglyceride, and glucose in the same manner as before.

[1] = plasma triglyceride, read-out: TG (% of control)
[2] = plasma, [total cholesterol]-[HDL-cholesterol], read-out: Non-HDL-C (% of control)

| SMILES | activity at 10 µM (HepG2 cells) [%] | response vs control in vivo at 20 mg/kg (Golden Syrian hamsters; [1]) [%] | response vs control in vivo at 20 mg/kg (Golden Syrian hamsters; [2]) [%] | TG (Wistar fatty rats; * P < 0.05 vs control group (324.7 ± 74.2)) [mg/dL] | Glucose (Wistar fatty rats; * P < 0.05 vs control group (366.8 ± 72.0)) [mg/dL] | Non-HDL-C (Wistar fatty rats; ** P < 0.01 vs control group (39.9 ± 3.7)) [mg/dL] |
| --- | --- | --- | --- | --- | --- | --- |
| O=C(C=CC1=Cc2cnc3cccc(n23)S1)NCC1CCN(CCCc2ccccc2)CC1 [Example 9, N-[1-(3-phenylpropan-1-yl)piperidin-4-ylmethyl]-3-(5-thia-1,8b-diazaacenaphthylen-4-yl)acrylamide dihydrochloride] | 247 | 67 | 62.3 |  |  |  |
| O=C(NCC1CCN(CCCc2ccccc2)CC1)C1=Cc2cnc3cccc(n23)S1 [Example 22, N-[1-(3-phenylpropan-1-yl)piperidin-4-ylmethyl]-5-thia-1,8b-diazaacenaphthylene-4-carboxamide Dihydrochloride] | 126 | 62.3 | 58.8 | 258.3 ± 38.4 | 268.2 ± 81.9 | 30.0 ± 5.2 |
